Data published in PubChem BioAssay (NCI).
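Compound exposure: 48 hours, 5 concentrations, 96-well plates. GI50 marks 50% less growth. TGI denotes the concentration required for complete inhibition of growth.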

Experiments:
Experiment in all cases: NCI anticancer screen, dose series, 48 h
786-0 renal = tested on: 786-0 renal
A498 renal = tested on: A498 renal
A549 NSCLC = tested on: A549 NSCLC
ACHN renal = tested on: ACHN renal
BT-549 breast = tested on: BT-549 breast
CAKI-1 renal = tested on: CAKI-1 renal
CCRF-CEM leukemia = tested on: CCRF-CEM leukemia
COLO 205 colon = tested on: COLO 205 colon
DU-145 prostate = tested on: DU-145 prostate
EKVX NSCLC = tested on: EKVX NSCLC
HCC-2998 colon = tested on: HCC-2998 colon
HCT-116 colon = tested on: HCT-116 colon
HCT-15 colon = tested on: HCT-15 colon
HL-60(TB) leukemia = tested on: HL-60(TB) leukemia
HOP-62 NSCLC = tested on: HOP-62 NSCLC
HOP-92 NSCLC = tested on: HOP-92 NSCLC
HS 578T breast = tested on: HS 578T breast
HT29 colon = tested on: HT29 colon
IGROV1 ovarian = tested on: IGROV1 ovarian
K-562 leukemia = tested on: K-562 leukemia
KM12 colon = tested on: KM12 colon
LOX IMVI melanoma = tested on: LOX IMVI melanoma
M14 melanoma = tested on: M14 melanoma
MALME-3M melanoma = tested on: MALME-3M melanoma
MCF7 breast = tested on: MCF7 breast
MDA-MB-231 breast = tested on: MDA-MB-231 breast
MDA-MB-435 = tested on: MDA-MB-435
MOLT-4 leukemia = tested on: MOLT-4 leukemia
NCI-H226 lung = tested on: NCI-H226 lung
NCI-H23 lung = tested on: NCI-H23 lung
NCI-H460 lung = tested on: NCI-H460 lung
NCI-H522 lung = tested on: NCI-H522 lung
NCI/ADR-RES ovarian = tested on: NCI/ADR-RES ovarian
OVCAR-3 ovarian = tested on: OVCAR-3 ovarian
OVCAR-4 ovarian = tested on: OVCAR-4 ovarian
OVCAR-5 ovarian = tested on: OVCAR-5 ovarian
OVCAR-8 ovarian = tested on: OVCAR-8 ovarian
PC-3 prostate = tested on: PC-3 prostate
SF-268 CNS = tested on: SF-268 CNS
SF-295 CNS = tested on: SF-295 CNS
SF-539 CNS = tested on: SF-539 CNS
SK-MEL-2 melanoma = tested on: SK-MEL-2 melanoma
SK-MEL-28 melanoma = tested on: SK-MEL-28 melanoma
SK-MEL-5 melanoma = tested on: SK-MEL-5 melanoma
SK-OV-3 ovarian = tested on: SK-OV-3 ovarian
SN12C renal = tested on: SN12C renal
SNB-19 CNS = tested on: SNB-19 CNS
SNB-75 CNS = tested on: SNB-75 CNS
SR leukemia = tested on: SR leukemia
SW-620 colon = tested on: SW-620 colon
T-47D breast = tested on: T-47D breast
TK-10 renal = tested on: TK-10 renal
U251 CNS = tested on: U251 CNS
UACC-257 melanoma = tested on: UACC-257 melanoma
UACC-62 melanoma = tested on: UACC-62 melanoma
UO-31 renal = tested on: UO-31 renal

**Q.** Which results are given for `C#C[C@]1(O)CC[C@H]2[C@@H]3CC=C4c5sc(-c6ccc7c(c6)OCO7)nc5CC[C@]4(C)[C@H]3CC[C@@]21C`?
**A.** GI50 (786-0 renal): 0.841 µM; TGI (786-0 renal): 3.78 µM; GI50 (A498 renal): 1.63 µM; TGI (A498 renal): 7.49 µM; GI50 (A549 NSCLC): 2.76 µM; TGI (A549 NSCLC): 8.48 µM; GI50 (ACHN renal): 2.11 µM; TGI (ACHN renal): 5.57 µM; GI50 (BT-549 breast): 1.99 µM; TGI (BT-549 breast): 5.67 µM; GI50 (CAKI-1 renal): 2.63 µM; TGI (CAKI-1 renal): 8.37 µM; GI50 (CCRF-CEM leukemia): 2.8 µM; TGI (CCRF-CEM leukemia): > 100 µM; GI50 (COLO 205 colon): 3.87 µM; TGI (COLO 205 colon): 27.8 µM; GI50 (DU-145 prostate): 3.45 µM; TGI (DU-145 prostate): 70.5 µM; GI50 (EKVX NSCLC): 3.55 µM; TGI (EKVX NSCLC): 73.5 µM; GI50 (HCC-2998 colon): 5.56 µM; TGI (HCC-2998 colon): > 100 µM; GI50 (HCT-116 colon): 1.84 µM; TGI (HCT-116 colon): 5.3 µM; GI50 (HCT-15 colon): 1.93 µM; TGI (HCT-15 colon): 6.28 µM; GI50 (HL-60(TB) leukemia): 3.8 µM; TGI (HL-60(TB) leukemia): > 100 µM; GI50 (HOP-62 NSCLC): 2.53 µM; TGI (HOP-62 NSCLC): 7.94 µM; GI50 (HOP-92 NSCLC): 8.39 µM; TGI (HOP-92 NSCLC): 29.8 µM; GI50 (HS 578T breast): 0.501 µM; TGI (HS 578T breast): 3.98 µM; GI50 (HT29 colon): 2.32 µM; TGI (HT29 colon): 7.65 µM; GI50 (IGROV1 ovarian): 2.98 µM; TGI (IGROV1 ovarian): 8.3 µM; GI50 (K-562 leukemia): 3.53 µM; TGI (K-562 leukemia): > 100 µM; GI50 (KM12 colon): 3.46 µM; TGI (KM12 colon): 31.1 µM; GI50 (LOX IMVI melanoma): 1.73 µM; TGI (LOX IMVI melanoma): 4.3 µM; GI50 (M14 melanoma): 1.73 µM; TGI (M14 melanoma): 5.34 µM; GI50 (MALME-3M melanoma): 2.69 µM; TGI (MALME-3M melanoma): 8.62 µM; GI50 (MCF7 breast): 1.87 µM; TGI (MCF7 breast): 4.95 µM; GI50 (MDA-MB-231 breast): 3.45 µM; TGI (MDA-MB-231 breast): 40.8 µM; GI50 (MDA-MB-435): 1.97 µM; TGI (MDA-MB-435): 4.17 µM; GI50 (MOLT-4 leukemia): 2.8 µM; TGI (MOLT-4 leukemia): > 100 µM; GI50 (NCI-H226 lung): 3.31 µM; TGI (NCI-H226 lung): 12.6 µM; GI50 (NCI-H23 lung): 2.13 µM; TGI (NCI-H23 lung): 5.29 µM; GI50 (NCI-H460 lung): 2.38 µM; TGI (NCI-H460 lung): 5.64 µM; GI50 (NCI-H522 lung): 2.38 µM; TGI (NCI-H522 lung): 6.17 µM; GI50 (NCI/ADR-RES ovarian): 3.34 µM; TGI (NCI/ADR-RES ovarian): 17 µM; GI50 (OVCAR-3 ovarian): 3 µM; TGI (OVCAR-3 ovarian): 11.9 µM; GI50 (OVCAR-4 ovarian): 3.33 µM; TGI (OVCAR-4 ovarian): 9.95 µM; GI50 (OVCAR-5 ovarian): 2.08 µM; TGI (OVCAR-5 ovarian): 5.29 µM; GI50 (OVCAR-8 ovarian): 3.43 µM; TGI (OVCAR-8 ovarian): 86.3 µM; GI50 (PC-3 prostate): 1.68 µM; TGI (PC-3 prostate): 4.46 µM; GI50 (SF-268 CNS): 4.97 µM; TGI (SF-268 CNS): 27.7 µM; GI50 (SF-295 CNS): 0.52 µM; TGI (SF-295 CNS): 2.56 µM; GI50 (SF-539 CNS): 0.428 µM; TGI (SF-539 CNS): 1.96 µM; GI50 (SK-MEL-2 melanoma): 2.14 µM; TGI (SK-MEL-2 melanoma): 6.37 µM; GI50 (SK-MEL-28 melanoma): 1.29 µM; TGI (SK-MEL-28 melanoma): 2.85 µM; GI50 (SK-MEL-5 melanoma): 2.64 µM; TGI (SK-MEL-5 melanoma): 6.99 µM; GI50 (SK-OV-3 ovarian): 4.83 µM; TGI (SK-OV-3 ovarian): 26.6 µM; GI50 (SN12C renal): 2.88 µM; TGI (SN12C renal): 9.83 µM; GI50 (SNB-19 CNS): 2.59 µM; TGI (SNB-19 CNS): 13.8 µM; GI50 (SNB-75 CNS): 1.73 µM; TGI (SNB-75 CNS): 8.25 µM; GI50 (SR leukemia): 2.64 µM; TGI (SR leukemia): > 100 µM; GI50 (SW-620 colon): 2.07 µM; TGI (SW-620 colon): 5.28 µM; GI50 (T-47D breast): 3.62 µM; TGI (T-47D breast): 27.6 µM; GI50 (TK-10 renal): 3.39 µM; TGI (TK-10 renal): 10.1 µM; GI50 (U251 CNS): 1.41 µM; TGI (U251 CNS): 4.53 µM; GI50 (UACC-257 melanoma): 2.43 µM; TGI (UACC-257 melanoma): 6.7 µM; GI50 (UACC-62 melanoma): 2.24 µM; TGI (UACC-62 melanoma): 5.19 µM; GI50 (UO-31 renal): 2.03 µM; TGI (UO-31 renal): 5.47 µM
